# Measurements as given in PubChem BioAssay (NCI).
# Where “and” joins values, the source holds several entries; their conditions need not be identical. Equal values may be shown once.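 Cultured in 96-well plates, cells were exposed to test compound for 48 hours across five concentrations. GI50 marks 50% less growth. TGI: total growth inhibition.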
# Experiments:
# Experiment in all cases: DTP human tumour cell line panel, 48 h
# [1] = test system: 786-0 renal
# [2] = test system: NCI-H23 lung
# [3] = test system: A498 renal
# [4] = test system: NCI-H522 lung
# [5] = test system: HCT-116 colon
# [6] = test system: A549 NSCLC
# [7] = test system: LOX IMVI melanoma
# [8] = test system: CAKI-1 renal
# [9] = test system: SN12C renal
# [10] = test system: NCI/ADR-RES ovarian
Compound,TGI [1],TGI [2],TGI [3],TGI [4],TGI [5],TGI [6],TGI [7],TGI [8],TGI [9],TGI [10],GI50 [1],GI50 [2],GI50 [8],GI50 [3],GI50 [9],GI50 [4],GI50 [5],GI50 [6],GI50 [10],GI50 [7]
Cc1ccc2c(c1)-c1c3c(nn1-c1ccccc1)-c1ccccc1SC3O2 (configuration not stated),> 100 µM,> 100 µM,> 100 µM,> 100 µM,> 100 µM,> 100 µM,> 100 µM,–,–,–,–,–,–,–,–,–,–,–,–,–
COc1cc2c[n+](C)c3c4cc(OC)c(OC(C)C)cc4ccc3c2cc1OC,> 100 µM,> 100 µM,–,69.3 µM,> 100 µM,> 100 µM,> 100 µM,> 100 µM,> 100 µM,–,–,–,–,–,–,–,–,–,–,–
C[C@H](OCc1ccccc1)C(=O)N1CCS(=O)(=O)N2CCC[C@@H]2C1=O,> 100 µM,> 100 µM,> 100 µM,> 100 µM,> 100 µM,> 100 µM,> 100 µM,> 100 µM,> 100 µM,–,–,–,–,–,–,–,–,–,–,–
Cc1ccccc1C1OC(=O)c2ccc3ccccc3c21 (configuration not stated),18.9 µM,20.7 µM,8.51 µM,4.89 µM,7.14 µM,16.6 µM,7.45 µM,88.4 µM,18.3 µM,–,–,–,–,–,–,–,–,–,–,–
COC(C(=O)NN)c1ccccc1 (configuration not stated),> 100 µM,> 100 µM,–,> 100 µM,–,> 100 µM,–,> 100 µM,> 100 µM,> 100 µM,–,–,–,–,–,–,–,–,–,–
C/C(O)=C(/C=N/C(=S)Nc1ccc(S(N)(=O)=O)cc1)C(=O)Nc1ccccc1C,> 100 µM,> 100 µM,–,> 100 µM,> 100 µM,> 100 µM,48.8 µM,> 100 µM,> 100 µM,> 100 µM,–,–,–,–,–,–,–,–,–,–
C=Cc1cncc(C#N)c1CCc1c(C#N)cncc1C=C,> 100 µM,> 100 µM,> 100 µM,> 100 µM,> 100 µM,> 100 µM,> 100 µM,> 100 µM,> 100 µM,–,> 100 µM,> 100 µM,> 10 µM,> 100 µM,> 100 µM,> 100 µM,> 100 µM,> 100 µM,–,–
C=C/C=C/NC(=O)OCc1ccccc1,> 100 µM,–,–,> 100 µM,> 100 µM,> 100 µM,> 100 µM,> 100 µM,> 100 µM,–,–,–,–,–,–,–,–,–,–,–
CN(C(=O)C12C3C4C1C1C2C3C41C(N)=O)C(C)(C)C (configuration not stated),> 100 µM,> 100 µM,> 100 µM,> 100 µM,> 100 µM,> 100 µM,–,> 100 µM,> 100 µM,–,–,–,–,–,–,–,–,–,–,–
CC(=O)Nc1ccc(S(=O)(=O)N/N=C/CN2C(=O)c3ccccc3C2=O)cc1,> 100 µM,> 100 µM,> 100 µM,> 100 µM,> 100 µM,> 100 µM,> 100 µM,> 100 µM,> 100 µM,–,–,–,–,–,–,–,–,–,–,–
CC1(C)C2CCC13C(=O)C1OC3(C2)C2C(=O)c3ccccc3C(=O)C12 (configuration not stated),> 100 µM,> 100 µM,–,> 100 µM,> 100 µM,> 100 µM,–,72.8 µM,> 100 µM,> 100 µM,> 100 µM,> 100 µM,21.9 µM,–,> 100 µM,> 100 µM,> 100 µM,> 100 µM,12.1 µM,–
C[C@@]12CCC(=O)c3coc(c31)C(=O)c1cc3c(cc12)C(=O)C=CC3=O,> 1 µM and 31 µM,26.2 µM,> 100 µM,> 1 µM and 22.1 µM,> 1 µM and 28.7 µM,> 100 µM,> 1 µM and 20.9 µM,> 1 µM and 38.4 µM,> 1 µM and 30.7 µM,–,> 1 µM,–,> 1 µM,–,> 1 µM,> 1 µM,> 1 µM,> 1 µM,–,> 1 µM
CC(CN(C)C)/C(=N\Nc1ccccc1)c1ccccc1 (configuration not stated),29.5 µM,23.4 µM,> 100 µM,25.1 µM,> 100 µM,2.4 µM,4.16 µM,–,> 100 µM,–,–,–,–,–,–,–,–,–,–,–
CCOC(=O)/C(C1=NCCN1)=C(\O)c1ccccc1,> 100 µM,> 100 µM,–,> 100 µM,> 100 µM,> 100 µM,> 100 µM,> 100 µM,> 100 µM,–,–,–,–,–,–,–,–,–,–,–
c1cncc(C2N3CCCCC3[C@@H]3c4[nH]c5ccccc5c4CCN23)c1 (some centres not stated),> 100 µM,> 100 µM,> 100 µM,–,> 100 µM,> 100 µM,–,> 100 µM,> 100 µM,–,–,–,–,–,–,–,–,–,–,–
CCCCCCCCCCCCCCCC(=O)OCC1OC(n2cc(F)c(=O)[nH]c2=O)C(N)C(O)C1O (configuration not stated),35.2 µM,39.3 µM,61.3 µM,31.7 µM,34.4 µM,33.1 µM,33.1 µM,37.5 µM,32.4 µM,–,–,–,–,–,–,–,–,–,–,–
O=S(=O)(/C=C/c1ccc(F)cc1)Cc1ccc(CS(=O)(=O)/C=C/c2ccc(F)cc2)cc1,> 100 µM,> 100 µM,–,> 100 µM,> 100 µM,> 100 µM,> 100 µM,> 100 µM,> 100 µM,–,–,–,–,–,–,–,–,–,–,–
